Data reported in the NIST ThermoML archive (doi:10.1021/je8007759).

Test: xn = mol fraction of the nth substance listed
Conditions: 322.9 K, Fluid (supercritical or subcritical phases), Pycnometric method

CC1CCC(=O)O1 (stereo not given) [γ-valerolactone] + O=C=O
Conditions	mass density [kg/m3]
9870 kPa, x1 = 0.01	521
9890 kPa, x1 = 0.01	526
9920 kPa, x1 = 0.01	529
9940 kPa, x1 = 0.01	532
9960 kPa, x1 = 0.01	535
9980 kPa, x1 = 0.01	539
10000 kPa, x1 = 0.01	540
10020 kPa, x1 = 0.01	542
10050 kPa, x1 = 0.01	547
10080 kPa, x1 = 0.01	550
10100 kPa, x1 = 0.01	554
10110 kPa, x1 = 0.01	556
10140 kPa, x1 = 0.01	559
10170 kPa, x1 = 0.01	563
10200 kPa, x1 = 0.01	566
10230 kPa, x1 = 0.01	576
10230 kPa, x1 = 0.025	673
10240 kPa, x1 = 0.025	675
10260 kPa, x1 = 0.01	574
10270 kPa, x1 = 0.025	679
10290 kPa, x1 = 0.01	578
10310 kPa, x1 = 0.025	683
10330 kPa, x1 = 0.01	582
10370 kPa, x1 = 0.01	586
10370 kPa, x1 = 0.025	687
10380 kPa, x1 = 0.15	939
10400 kPa, x1 = 0.01	590
10430 kPa, x1 = 0.01	594
10440 kPa, x1 = 0.025	692
10470 kPa, x1 = 0.01	598
10470 kPa, x1 = 0.025	696
10510 kPa, x1 = 0.05	766
10520 kPa, x1 = 0.01	602
10540 kPa, x1 = 0.025	701
10550 kPa, x1 = 0.05	769
10570 kPa, x1 = 0.01	606
10600 kPa, x1 = 0.05	771
10610 kPa, x1 = 0.025	705
10620 kPa, x1 = 0.01	610
10630 kPa, x1 = 0.1	881
10670 kPa, x1 = 0.025	710
10680 kPa, x1 = 0.01	615
10700 kPa, x1 = 0.1	882
10720 kPa, x1 = 0.01	619
10720 kPa, x1 = 0.05	776
10750 kPa, x1 = 0.025	714
10770 kPa, x1 = 0.1	884
10780 kPa, x1 = 0.01	624
10820 kPa, x1 = 0.025	718
10840 kPa, x1 = 0.01	629
10840 kPa, x1 = 0.1	885
10860 kPa, x1 = 0.05	781
10880 kPa, x1 = 0.15	943
10900 kPa, x1 = 0.01	633
10910 kPa, x1 = 0.025	723
10980 kPa, x1 = 0.01	638
11000 kPa, x1 = 0.1	888
11010 kPa, x1 = 0.05	787
11020 kPa, x1 = 0.025	727
11040 kPa, x1 = 0.01	641
11090 kPa, x1 = 0.025	732
11160 kPa, x1 = 0.01	650
11180 kPa, x1 = 0.05	792
11190 kPa, x1 = 0.025	737
11200 kPa, x1 = 0.15	945
11230 kPa, x1 = 0.1	892
11290 kPa, x1 = 0.01	657
11310 kPa, x1 = 0.025	742
11380 kPa, x1 = 0.05	797
11450 kPa, x1 = 0.025	747
11510 kPa, x1 = 0.01	667
11540 kPa, x1 = 0.025	751
11540 kPa, x1 = 0.1	897
11580 kPa, x1 = 0.05	803
11700 kPa, x1 = 0.025	757
11760 kPa, x1 = 0.15	950
11800 kPa, x1 = 0.01	681
11800 kPa, x1 = 0.05	808
11820 kPa, x1 = 0.025	763
11970 kPa, x1 = 0.025	768
12010 kPa, x1 = 0.1	903
12030 kPa, x1 = 0.01	691
12080 kPa, x1 = 0.05	814
12130 kPa, x1 = 0.025	773
12140 kPa, x1 = 0.15	952
